Assay results: patent EP2987533B1, “7-substituted piperazin-1-yl fluoroquinolone compounds, their use in the treatment of cancer, pharmaceutical compositions and a method for preparation” (priority 2014, dated 2016)

What was measured:
Experiment in all cases: NCI one-dose SRB growth assay
Assay type in all cases: cell-based
SK-MEL-5 = conditions: Homo sapiens; SK-MEL-5 (Melanoma), 10^-5 M, 48 h; read-out: % Growth Inhibition (GI %)
Method in brief: (§1)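 Compounds tested at a single concentration of 10^-5M on cultured human tumor cells for 48 h. Sulforhodamine B protein staining read spectrophotometrically; values are growth percentage of treated cells relative to untreated controls.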

UO-31 = conditions: Homo sapiens; UO-31 (Renal Cancer), 10^-5 M, 48 h; read-out: % Growth Inhibition (GI %)
Method in brief: as §1

OVCAR-4 = conditions: Homo sapiens; OVCAR-4 (Ovarian Cancer), 10^-5 M, 48 h; read-out: % Growth Inhibition (GI %)
Method in brief: as §1

A549/ATCC = conditions: Homo sapiens; A549/ATCC (Non-Small Cell Lung Cancer), 10^-5 M, 48 h; read-out: % Growth Inhibition (GI %)
Method in brief: as §1

HCT-116 = conditions: Homo sapiens; HCT-116 (Colon Cancer), 10^-5 M, 48 h; read-out: % Growth Inhibition (GI %)
Method in brief: as §1

OVCAR-3 = conditions: Homo sapiens; OVCAR-3 (Ovarian Cancer), 10^-5 M, 48 h; read-out: % Growth Inhibition (GI %)
Method in brief: as §1

NCI-H460 = conditions: Homo sapiens; NCI-H460 (Non-Small Cell Lung Cancer), 10^-5 M, 48 h; read-out: % Growth Inhibition (GI %)
IGROV1 = conditions: Homo sapiens, IGROV-1; IGROV1 (Ovarian Cancer), 10^-5 M, 48 h; read-out: % Growth Inhibition (GI %)
A498 = conditions: Homo sapiens; A498 (Renal Cancer), 10^-5 M, 48 h; read-out: % Growth Inhibition (GI %)
Method in brief: as §1

PC-3 = conditions: Homo sapiens; PC-3 (Prostate Cancer), 10^-5 M, 48 h; read-out: % Growth Inhibition (GI %)
Method in brief: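 SRB colorimetry after 48 h incubation with a 10^-5M single dose; growth % relative to untreated.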

U251 = conditions: Homo sapiens, U-251; U251 (CNS Cancer), 10^-5 M, 48 h; read-out: % Growth Inhibition (GI %)
Method in brief: as §1

NCI/ADR-RES = conditions: Homo sapiens; NCI/ADR-RES (Ovarian Cancer), 10^-5 M, 48 h; read-out: % Growth Inhibition (GI %)
Method in brief: as §1

SN12C = conditions: Homo sapiens; SN12C (Renal Cancer), 10^-5 M, 48 h; read-out: % Growth Inhibition (GI %)
Method in brief: as §1

T-47D = conditions: Homo sapiens, T47D; T-47D (Breast Cancer), 10^-5 M, 48 h; read-out: % Growth Inhibition (GI %)
Method in brief: as §1

KM12 = conditions: Homo sapiens; KM12 (Colon Cancer), 10^-5 M, 48 h; read-out: % Growth Inhibition (GI %)
Method in brief: as §1

SR = conditions: Homo sapiens; SR (Leukemia), 10^-5 M, 48 h; read-out: % Growth Inhibition (GI %)
Method in brief: as §1

HCC-2998 = conditions: Homo sapiens; HCC-2998 (Colon Cancer), 10^-5 M, 48 h; read-out: % Growth Inhibition (GI %)
Method in brief: as §1

NCI-H322M = conditions: Homo sapiens; NCI-H322M (Non-Small Cell Lung Cancer), 10^-5 M, 48 h; read-out: % Growth Inhibition (GI %)
HOP-92 = conditions: Homo sapiens; HOP-92 (Non-Small Cell Lung Cancer), 10^-5 M, 48 h; read-out: % Growth Inhibition (GI %)
Method in brief: as §1

HL-60(TB) = conditions: Homo sapiens; HL-60(TB) (Leukemia), 10^-5 M, 48 h; read-out: % Growth Inhibition (GI %)
MDA-MB-435 = conditions: Homo sapiens; MDA-MB-435 (Melanoma), 10^-5 M, 48 h; read-out: % Growth Inhibition (GI %)
Method in brief: as §1

CAKI-1 = conditions: Homo sapiens; CAKI-1 (Renal Cancer), 10^-5 M, 48 h; read-out: % Growth Inhibition (GI %)
Method in brief: as §1

OVCAR-8 = conditions: Homo sapiens; OVCAR-8 (Ovarian Cancer), 10^-5 M, 48 h; read-out: % Growth Inhibition (GI %)
Method in brief: as §1

M14 = conditions: Homo sapiens; M14 (Melanoma), 10^-5 M, 48 h; read-out: % Growth Inhibition (GI %)
Method in brief: as §1

MDA-MB-468 = conditions: Homo sapiens; MDA-MB-468 (Breast Cancer), 10^-5 M, 48 h; read-out: % Growth Inhibition (GI %)
Method in brief: as §1

SK-MEL-28 = conditions: Homo sapiens; SK-MEL-28 (Melanoma), 10^-5 M, 48 h; read-out: % Growth Inhibition (GI %)
Method in brief: as §1

SMILES	inhibition at 10 µM (SK-MEL-5) [%]	inhibition at 10 µM (UO-31) [%]	inhibition at 10 µM (OVCAR-4) [%]	inhibition at 10 µM (A549/ATCC) [%]	inhibition at 10 µM (HCT-116) [%]	inhibition at 10 µM (OVCAR-3) [%]	inhibition at 10 µM (NCI-H460) [%]	inhibition at 10 µM (IGROV1) [%]	inhibition at 10 µM (A498) [%]	inhibition at 10 µM (PC-3) [%]	inhibition at 10 µM (U251) [%]	inhibition at 10 µM (NCI/ADR-RES) [%]	inhibition at 10 µM (SN12C) [%]	inhibition at 10 µM (T-47D) [%]	inhibition at 10 µM (KM12) [%]	inhibition at 10 µM (HCC-2998) [%]	inhibition at 10 µM (NCI-H322M) [%]	inhibition at 10 µM (HOP-92) [%]	inhibition at 10 µM (HL-60(TB)) [%]	inhibition at 10 µM (MDA-MB-435) [%]	also measured
O=c1[nH]cc(F)c(=O)[nH]1 [Compound 5-FU, 5-fluorouracil, reference compound]	33.7	41.3	59.4	34.2	17.8	47.4	13	51.2	> 100	58.2	50.3	47.6	54	56.7	40.7	> 100	59.5	50.6	47.9	36.6	inhibition at 10 µM (SR): 24.8%; inhibition at 10 µM (CAKI-1): 39.4%
O=C(O)c1cn(C2CC2)c2cc(N3CCN(S(=O)(=O)c4ccc(Cl)c(Cl)c4)CC3)c(F)cc2c1=O [Compound 3b]	97.9	90	79.2	94	96	90.1	94.2	70.7	86.2	83.8	87.6	46.5	89.6	83.7	85.4	75.2	78.7	87.8	> 100	87	inhibition at 10 µM (OVCAR-8): 94.5%; inhibition at 10 µM (M14): 81.5%; inhibition at 10 µM (MDA-MB-468): > 100%; inhibition at 10 µM (SR): > 100%; inhibition at 10 µM (SK-MEL-28): 51.5%; inhibition at 10 µM (CAKI-1): 96.9%
CCn1cc(C(=O)O)c(=O)c2cc(F)c(N3CCN(S(=O)(=O)c4ccc(Cl)cc4Cl)CC3)cc21 [Compound 2a]	> 100	> 100	< 10	98	93.6	92.1	89.1	92.5	> 100	98.4	87.9	90.7	89.7	98.3	90.6	69.4	> 100	> 100	> 100	87.2	inhibition at 10 µM (OVCAR-8): 94.2%; inhibition at 10 µM (M14): 84.1%; inhibition at 10 µM (MDA-MB-468): > 100%; inhibition at 10 µM (SR): > 100%; inhibition at 10 µM (SK-MEL-28): < 10%; inhibition at 10 µM (CAKI-1): 95.2%
O=C(O)c1cn(C2CC2)c2cc(N3CCN(S(=O)(=O)c4ccc(Cl)cc4Cl)CC3)c(F)cc2c1=O [Compound 2b]	79.8	40	35.9	< 10	13.4	< 10	< 10	< 10	23.6	18.9	< 10	< 10	13.8	26.4	< 10	< 10	12.8	< 10	13.1	< 10	inhibition at 10 µM (OVCAR-8): < 10%; inhibition at 10 µM (M14): < 10%; inhibition at 10 µM (MDA-MB-468): 65.1%; inhibition at 10 µM (SR): 17.7%; inhibition at 10 µM (SK-MEL-28): 49.1%; inhibition at 10 µM (CAKI-1): 12.1%
Cc1cc(C)c(S(=O)(=O)N2CCN(c3cc4c(cc3F)c(=O)c(C(=O)O)cn4C3CC3)CC2)c(C)c1 [Compound 6b]	45.1	83.9	24.4	79.7	67.8	< 10	60.5	64.3	37	32.1	80.3	30.1	86.1	37	39.3	52.3	25.3	53.1	91.3	23.9	inhibition at 10 µM (OVCAR-8): 40.5%; inhibition at 10 µM (M14): 36.5%; inhibition at 10 µM (MDA-MB-468): 34.9%; inhibition at 10 µM (SR): 60.9%; inhibition at 10 µM (SK-MEL-28): 30.9%; inhibition at 10 µM (CAKI-1): 32.9%
CCn1cc(C(=O)O)c(=O)c2cc(F)c(N3CCN(S(=O)(=O)c4ccc(Cl)cc4)CC3)cc21 [Compound 1a]	73.4	48.9	62.3	84.4	95.2	71.8	94.1	90.6	> 100	74.7	88	31.3	88.4	58.9	95.7	75.5	54.1	> 100	91	74.9	inhibition at 10 µM (OVCAR-8): 87.4%; inhibition at 10 µM (M14): 81.1%; inhibition at 10 µM (SK-MEL-28): 55.4%; inhibition at 10 µM (CAKI-1): 56.4%
CCn1cc(C(=O)O)c(=O)c2cc(F)c(N3CCN(S(=O)(=O)c4c(C)cc(C)cc4C)CC3)cc21 [Compound 6a]	20.5	66.9	< 10	22	20.9	10.8	17.2	20.6	21.1	38.9	16.6	15.2	11.5	25.9	12.8	17.5	16.5	12.6	26.9	10.9	inhibition at 10 µM (OVCAR-8): 18.5%; inhibition at 10 µM (M14): 24.4%; inhibition at 10 µM (MDA-MB-468): 19.7%; inhibition at 10 µM (SR): 35.5%; inhibition at 10 µM (SK-MEL-28): < 10%; inhibition at 10 µM (CAKI-1): 10.7%
